Like-named read-outs stand apart in the source and are kept apart here.
How the values were obtained:
[1] = Increasing dosages of Compound 72 for 7 days in db/db mice; format: in vivo, mouse; conditions: male, mouse, oral, around 8 hours after last dose
Description: (§1) Significance was accepted when p<0.05.

[2] = test system: db/db mouse model of type II diabetes; assay: as above; format: in vivo
Description: as §1

[3] = 7 day dosing, glucose metabolism, insulin and compound levels in db/db mice; format: in vivo, mouse; conditions: male, mouse, around 8 hours after last dose, 50 mg/kg PO 7 days
Description: as §1

[4] = test system: db/db mouse model of type II diabetes; assay: as above; format: in vivo; conditions: 50 mg/kg PO 7 days
Description: as §1

[5] = Pharmacokinetic analysis in SD rats (plasma, LC/MS/MS); format: in vivo, rat; conditions: 50 mg/kg P.O.; for Cmax: plasma, 50 mg/kg
Procedure: Male SD rats (weighing 250-300 g, Charles River Laboratories) were used for the experiment with n=4 rats for each experimental group. […] Blood was collected at the following time points after administration: 15, 30, 60, 90 minutes, 3, 6, 12 and 24 hours. A pre-dose sample was also collected. Animals were cannulated by technical staff at Charles River, prior to delivery at Reset. Whole blood (0.3 ml) was collected from a cannula in the right common jugular vein at each time-point. The whole blood was transferred to an EDTA tube, and then centrifuged at 5400 rpm for 5 minutes at 4° C. The resultant plasma was frozen using dry ice and then stored at −80° C. until ready for assay. 0.9% Sodium Chloride (0.3 ml) was administered for fluid replenishment after each blood draw. 0.1 ml of Sodium Heparin (500 IU/ml) was used as a lock solution after the 12 hr time-point. Samples were assayed as described above.

[6] = test system: core clock gene mRNAs in liver of Balb/c mice; assay: 24 hour gene expression study, liver mRNA by RT-qPCR, Balb/c mice; format: in vivo, mouse; conditions: 50 mg/kg BID PO
Procedure: E.Z.N.A.® HP Total RNA Isolation Kits (R6812-01 and the protocol described in the Manual, Revised 2010) were utilized to prepare and isolate RNA from the liver samples. To prepare the RNA samples, 10-30 mg of sample was removed from RNA-Later and placed in a 1.5 ml microfuge tube. GTC lysis buffer (700 μl) was added to the tissue, which was homogenized with a rotor-stator homogenizer (e.g. Tissue-Tearor, Model #985370 BioSpec Products with 4.5 mm probe, Cat. #985370-04), and then centrifuged at full speed (>13,000×g) for 5 minutes. The cleared supernatant was transferred by pipetting to a DNA Clearance Column Pre-inserted in a 2 mL Collection Tube. The assembled column was centrifuged at 13,000×g for 1 minute, and the flow-through was saved. An equal volume (700 μl) of 70% ethanol was added to the lysate and mixed. The sample was then applied to a HiBind RNA spin column placed into a 2 ml collection tube, which was centrifuged at 10,000×g for 60 seconds at room temperature. RNA Wash Buffer I (250 μl) was added by pipetting directly onto a new HiBind RNA column inserted in a 2 ml collection tube. The assembled column was centrifuged at 10,000×g for 60 seconds. The RNA column was placed into a new 2 ml collection tube. DNase I stock solution is pipetted (75 μl) directly onto the surface of the HiBind RNA resin in each column (Using DNAse Digestion with RNase Free DNase Set (E1091): for each HiBind RNA column, the DNase I stock solution was prepared as followed: E.Z.N.A.® DNase I Digestion Buffer 73.5μl, RNase Free DNase I (20 Kunitz/μl) 1.5 μl=Total Volume 75 μl.). The column with bound RNA was incubated at room temperature (25-30° C.) for 15 minutes. RNA Wash Buffer I (500 μl) was added to the column and placed on a bench top for 2 minutes. After centrifuging at 10,000×g for 60 seconds, discarding the flow-through, 500 μl of RNA Wash Buffer II was added and centrifuged at 10,000×g for 60 seconds. Another 500 μl of RNA Wash Buffer II was added and the column assembly was centrifuged at 10,000×g for 60 seconds. The column was centrifuged for 2 minutes at maximum speed to completely dry the HiBind matrix. […]
RediPlate 96 RiboGreen RNA Quantification Kit (Invitrogen) RediPlate standard curve was prepared by transferring 20 μl reconstituted RNA standard to a RediPlate well reconstituted in 180 μl RediPlate TE buffer. […] After transferring 5 μl to RediPlate well reconstituted in 195 μl TE buffer and incubating 10 min. at RT, Fluorescence Intensity of wells with standards and samples were read in a Tecan M200 with Excitation set at 480 nm and Emission set at 520 nm with the gain set to −70%. […] A standard curve was generated in GraphPad Prism and sample readings (unknowns) are interpolated via linear regression analysis, and the RNA sample concentrations were calculated. […]

concentration at 8 h ([1]; liver, 10 mg/kg, read-out: compound level in liver): 120 nM
concentration at 8 h ([1]; liver, 50 mg/kg, read-out: compound level in liver): 780 nM
concentration at 8 h ([1]; liver, 100 mg/kg, read-out: compound level in liver): 1810 nM
concentration at 8 h ([1]; plasma, 10 mg/kg, read-out: compound level in plasma): 90 nM
concentration at 8 h ([1]; plasma, 50 mg/kg, read-out: compound level in plasma): 570 nM
concentration at 8 h ([1]; plasma, 100 mg/kg, read-out: compound level in plasma): 1220 nM
concentration at 8 h ([3]; liver, read-out: compound level in liver): 670 nM
concentration at 8 h ([3]; plasma, read-out: compound level in plasma): 530 nM
Tmax ([5]; male, SD, po, rat plasma): 1.7 h
half-life ([5]; male, SD, po, rat plasma, read-out: Elimination T1/2 (converted)): 1.87 h
MRT last ([5]; male, SD, po, rat plasma, read-out: MRT (0-last, hr)): 4.94 h
Cmax ([5]; male, SD, rat, po, rat plasma, read-out: Cmax): 7100 ng/mL
Cmax ([5]; male, SD, rat, po, rat, read-out: Cmax (plasma)): 7100 ng/mL
Cmax ([5]; male, SD, rat, po, rat, unbound, read-out: Cmax UB (plasma)): 277 ng/mL
% AUC extrapolated ([5]; rat plasma): 3.3%
AUC (total; ng · hr/mL) ([5]; rat plasma): 57952 ng·h/mL
Unbound Plasma AUC (0-last) ([5]; rat): 2259
SMILES: O=C1NCCN1CC(O)Cn1c2ccc(F)cc2c2cc(F)ccc21 (stereo not shown) [Compound 72, 1-(3-(3,6-difluoro-9H-carbazol-9-yl)-2-hydroxypropyl)imidazolidin-2-one]
HOMA-IR ([2]; 10 mg/kg QD PO 7 days): 172.7+/−16.61 units
fasting blood glucose ([2]; 10 mg/kg QD PO 7 days): 503.5 ± 49.68 mg/dL
glucose AUC from OGTT ([2]; 10 mg/kg QD PO 7 days): 39771+/−4244
HOMA-IR ([2]; 50 mg/kg QD PO 7 days): 149.2+/−16.49 units
fasting blood glucose ([2]; 50 mg/kg QD PO 7 days): 402.8 ± 25.25 mg/dL
glucose AUC from OGTT ([2]; 50 mg/kg QD PO 7 days): 35527+/−3215
HOMA-IR ([2]; 100 mg/kg QD PO 7 days): 111.9+/−9.02 units
fasting blood glucose ([2]; 100 mg/kg QD PO 7 days): 420.7 ± 26.44 mg/dL
glucose AUC from OGTT ([2]; 100 mg/kg QD PO 7 days): 28499+/−3079
plasma insulin at t=0 ([2]; 100 mg/kg QD PO 7 days): 4.63 ± 0.17 ng/mL
reduction of HOMA-IR compared to vehicle control ([2]; 100 mg/kg QD PO 7 days): 34%
HOMA-IR [4]: 93.69+/−23.60 units
fasting blood glucose (FBG) [4]: 385.0 ± 29.69 mg/dL
glucose AUC calculated from the OGTT [4]: 35942+/−3192
plasma insulin at t=0 [4]: 3.78 ± 0.69 ng/mL
plasma insulin at t=2 hr ([4]; after glucose load): 2.53 ± 0.50 ng/mL
reduction of HOMA-IR ([4]; vs vehicle): 33%
reduction of insulin at t=0 ([4]; vs vehicle): 20%
reduction of insulin at t=2 hr ([4]; vs vehicle): 21%
Cry2 mRNA daytime peak in liver [6]: strongly attenuated
Bmal1 mRNA in liver ([6]; at ZT8 and 32 hours after original ZT0): substantially increased
Cry1 mRNA in liver ([6]; peak of expression in dark period): suppressed
Per2 mRNA in liver over 24 hours ([6]; vs vehicle): suppressed
